Activity calls are given as the source filed them. The rule behind the calls is not given here.
Each compound was assayed on INS-1E Gaussia luciferase insulin secretion, no glucose, luminescence (assay: glucose-independent GLuc insulin release activation – cell-based, INS-1E, Gaussia luciferase, luminescence, cherry-pick, counter-screen for glucose-dependent insulin secretion activators, dose response (AID 977606)).
Compound COc1ccc(CNCC(O)COc2ccc(C(C)(C)c3ccccc3)cc2)cc1 (centres undefined) has an AC40 of 6.24 µM.
Compound O=C(Nc1ccc2c(c1)OCO2)c1sc2cc(Cl)ccc2c1Cl has an AC40 of 4.98 µM.
CC(C)(C)c1cc(NCCCn2ccnc2)n2ncc(-c3ccc(Cl)cc3)c2n1 was tested, and the AC40 was 4.39 µM.
C/C=C/c1ccc(C2[C@H]3CNC[C@@H]2N3Cc2cc(-c3ccccc3)on2)cc1 (some centres undefined) gave an AC40 of 6.73 µM.
In the case of CCC(=O)Nc1ccc(NC(=S)NC(=O)c2oc3ccccc3c2C)cc1, the AC40 is reported as 3.36 µM.
For CCc1nc2ccc(C(=O)NCCCN3CCCC3=O)cn2c1N(CCC(C)C)CCN(C)C, the AC40 was > 35 µM (inactive).
Cc1ccc(C(OCC(O)CNCc2ccc(F)cc2)c2ccccc2)cc1 (centres undefined) showed an AC40 of 8.22 µM.
With CC1(C(=O)NS(=O)(=O)c2ccccc2Cl)CCN1C(=O)C1(c2ccccc2)CCCC1 (centres undefined) the AC40 was 23.4 µM.
With COc1ccc(C(=O)c2sc(Nc3ccccc3)nc2N)cc1OC the AC40 was 26.5 µM.
Work on CCCNC(=O)c1nnsc1S(=O)c1ccc(Cl)cc1 (centres undefined) yielded an AC40 of 1.16 µM.
With Cc1cccc(-n2c(C)c(C)c3c(N)ncnc32)c1 the AC40 was > 35 µM (inactive).
CCCCc1ccc(NC(=O)COc2ccc(C(=O)Nc3ccccc3OCC)cc2)cc1 showed an AC40 of 1.3 µM.
For C=CCOc1ccc(-c2nc3c(c(=O)[nH]c(=O)n3CCCC)n2C)cc1Br, the AC40 was 10.1 µM.
Compound CC(C)(C)OC(=O)N[C@@H](Cc1ccccc1)c1nnc(S(=O)(=O)Cc2ccccc2)o1 has an AC40 of 2.63 µM.
Compound O=C(Nc1nnc(-c2ccccc2SCc2ccccc2F)s1)Nc1ccccc1F has an AC40 of 12.8 µM.
With CNC[C@H](CC1CCCCC1)NC[C@H](Cc1ccccc1)NCCC12CC3CC(CC(C3)C1)C2 the AC40 was 4.43 µM.
O=C(N/N=C/c1ccc(Cl)cc1Cl)Nc1ccccc1 gave an AC40 of 7.4 µM.
In the case of CCSc1nnc(NC(=O)c2csc3c2CCCC3)s1, the AC40 is reported as 5.49 µM.
Work on Cc1ccc(S(=O)(=O)N2C[C@@H]3N[C@H](C2)C3c2ccc(/C=C/c3ccccc3)cc2)cc1 (some centres undefined) yielded an AC40 of 4.56 µM.
Work on N#Cc1nccnc1S(=O)(=O)c1cccs1 yielded an AC40 of 0.355 µM.
C[C@@H]1CN([C@H](C)CO)S(=O)(=O)c2ccc(-c3ccc(F)cc3)cc2O[C@H]1CN(C)Cc1cccc(F)c1 showed an AC40 of 17.7 µM.
O=C(CCN1CCOCC1)c1ccc2c(c1)OCCO2 showed an AC40 of 33.2 µM.
CCOC(=O)[C@]12Cc3c(cc(OC)c(OC)c3OC)[C@H]1N(C1CCCCC1)C(=O)c1cc(OC)ccc12 gave an AC40 of 6 µM.
Cc1ccc(-c2cc(C(=O)NCc3cnn(C)c3)c3cc(Br)ccc3n2)cc1 gave an AC40 of 1.24 µM.
Compound CCCCCCCCN1C(=O)[C@@H](CC(=O)N2CCN(C(=O)c3ccco3)CC2)C[C@@]2(C(=O)OC)C1=C[C@H](C1CCCC1)O[C@@H]2C has an AC40 of 9.46 µM.
CCCCc1c(Cc2cccc(F)c2)ncn1CCc1ccccc1OC showed an AC40 of 4.98 µM.
Cc1cc(OCCCN2CCC(C(O)(c3ccccc3)c3ccccc3)CC2)ccc1Br gave an AC40 of 3.84 µM.
C=CCNC(=S)N/N=C/c1ccc(-c2cc(Cl)ccc2Cl)o1 gave an AC40 of 4.34 µM.
Work on Cc1ccc(SC[C@H](C)CN2CC[C@H](C(C)(C)C)CCC2=O)cc1 yielded an AC40 of 4.93 µM.
Work on Cc1cccc(C(C)C)c1NC(=O)COC(=O)c1cccc(S(=O)(=O)N2CCc3ccccc3C2)c1 yielded an AC40 of 6.65 µM.
COC(=O)C1=C(C)N(Cc2cccc(C(F)(F)F)c2)C(=NCc2ccc3c(c2)OCO3)NC1CCc1ccccc1 (centres undefined) showed an AC40 of 6.1 µM.
Work on O=C1CC(Sc2nnc(-c3ccccc3)o2)C(=O)N1c1ccccc1 (centres undefined) yielded an AC40 of 9.58 µM.
COC(=O)c1ccc(C2C(Oc3ccc(OC)cc3)C(=O)N2CCc2ccc(F)cc2)cc1 (centres undefined) was tested, and the AC40 was 6.79 µM.
Compound CCOc1nc(-c2ccccc2)c2cc(Br)ccc2n1 has an AC40 of 21.9 µM.
Cc1ccc(NC(=O)c2oc3ccc(S(=O)(=O)N4CCOCC4)cc3c2C)cc1C showed an AC40 of 7.57 µM.
For CC(C)COc1ccc(Br)cc1CNC(C)(C)C, the AC40 was > 35 µM (inactive).
Compound CCOc1cc(/C=N/NC(=O)CCn2nc(C)cc2C)ccc1O has an AC40 of 21.9 µM.
In the case of O=C1CCc2cc(S(=O)(=O)N3CCN(c4ccc(F)cc4)CC3)cc3c2N1CC3, the AC40 is reported as > 35 µM (inactive).
Work on O=C(Nc1ccc(F)cc1)Nc1cc(OCC(F)(F)F)cc(OCC(F)(F)F)c1 yielded an AC40 of 5.78 µM.
COc1ccccc1C(=O)NC(=S)NC12CC3CC(CC(C3)C1)C2 gave an AC40 of 7.67 µM.
With CCC(=O)Nc1ccc(Cl)c(NC(=S)NC(=O)COc2ccc(Cl)cc2)c1 the AC40 was 5.38 µM.
In the case of O=c1c2ccccc2sn1-c1ccccc1F, the AC40 is reported as 1.22 µM.
COc1ccccc1CCn1cnc(-c2cccc(F)c2)c1C(C)C was tested, and the AC40 was 11.6 µM.
Cc1nc2ccccc2c2oc(C(=O)N3CCCC(C)C3)cc12 (centres undefined) was tested, and the AC40 was 16 µM.
For O=C(Nc1cccnc1)/C(N=Nc1cccnc1)=C(\O)c1ccccc1, the AC40 was > 35 µM (inactive).
O=c1[nH]cnc2nc(-c3ccc(N(CCCl)CCCl)cc3)[nH]c12 showed an AC40 of 4.26 µM.
Cc1ccc(/C=N/NC(=O)COc2ccccc2-c2ccccc2)cc1 was tested, and the AC40 was 4.99 µM.
Work on O=C(Cn1ncc(Cl)c(Cl)c1=O)Nc1ccc2c(c1)OCO2 yielded an AC40 of 8.01 µM.
NS(=O)(=O)c1ccc(NC(=O)COC(=O)c2cn(-c3ccccc3)nc2-c2ccc(F)cc2)cc1 was tested, and the AC40 was 4.09 µM.
For CCc1ccc(-c2c(C)sc(NC(=O)C3CCC3)c2C#N)cc1, the AC40 was > 35 µM (inactive).
N#Cc1cccc(-c2ccc([C@@H]3[C@@H]4CN(S(=O)(=O)c5ccc(-c6ccccc6)cc5)C[C@H]3N4)cc2)c1 showed an AC40 of 1.89 µM.
CCCCCc1cc(=O)oc2c(C(CCN3CCCC(C)C3)c3ccc(OC)cc3)c(OC)cc(OC)c12 (centres undefined) was tested, and the AC40 was 8.58 µM.
In the case of Cc1c(C(=O)OCC(=O)N2CC(=O)Nc3ccccc32)oc2ccc(Br)cc12, the AC40 is reported as 5.24 µM.
Compound COc1ccc(NC(=O)COc2ccc(C(=O)NC3CCCc4ccccc43)cc2OC)cc1 (centres undefined) has an AC40 of 5.92 µM.
For Cc1ccc(-n2cc(CNCCCn3ccnc3C)c(-c3ccc(F)cc3)n2)cc1, the AC40 was 30.7 µM.
With COc1ccc(-n2c(-c3ccc(Cl)cc3)c[nH]c2=S)cc1 the AC40 was 17.1 µM.
With COc1ccc(/C=N/N(C(C)=O)c2nc(-c3ccc(C)cc3)cs2)cc1 the AC40 was 1.98 µM.
CC1CCN(S(=O)(=O)c2ccc(C(=O)OCc3ccc4c(c3)OCO4)cc2)CC1 showed an AC40 of 11.4 µM.
For COc1ccc(C)cc1NCc1cc(=O)oc2cc(-c3ccccc3)c(O)cc12, the AC40 was 23.6 µM.
Compound CC(C)(c1ccccc1)c1ccc(OCC(O)CNC2CCN(Cc3ccccc3)CC2)cc1 (centres undefined) has an AC40 of 5.4 µM.
For O=C(Nc1nnc(-c2ccc(F)cc2)s1)C1CCN(S(=O)(=O)c2ccc(Cl)cc2)CC1, the AC40 was 5.13 µM.
CS(=O)(=O)c1cnc(-c2ccccc2)nc1Oc1ccc(F)cc1 gave an AC40 of 10.9 µM.
Cc1ccc2oc(-c3cccc(NC(=O)Cc4cccs4)c3)nc2c1 gave an AC40 of 2.42 µM.
COc1ccc(-c2cc3ccccc3oc2=O)cc1NC(=S)NC(=O)c1ccc2c(c1)OCCO2 showed an AC40 of 1.2 µM.
In the case of N#Cc1c(-c2cccc(Br)c2)cc(-c2cccnc2)nc1N, the AC40 is reported as 8.34 µM.
With CCOC(=O)c1c(-c2ccc(-c3ccccc3)cc2)csc1NC(=O)CNCCN(C)C the AC40 was 5.75 µM.
CC(C)NC(=O)OC[C@H]1O[C@H](C#Cc2ccc(C(C)(C)C)cc2)C=C[C@H]1O was tested, and the AC40 was 20.3 µM.
CCC(C)c1ccccc1OCCCN(C)Cc1ccccc1 (centres undefined) gave an AC40 of 9.93 µM.
Cc1ccccc1-c1ccc(C2[C@@H]3CN(C(=O)Nc4cccc(F)c4)C[C@H]2N3)cc1 (some centres undefined) was tested, and the AC40 was 7.52 µM.
With COCCOc1ccc(C(F)(F)F)cc1NC(=O)c1ccccc1F the AC40 was 7.89 µM.
With COc1ccc(/C=N/Nc2nc(-c3ccc(Cl)cc3)cc(C(F)(F)F)n2)c(OC)c1 the AC40 was 12.2 µM.
In the case of O=S(=O)(c1ccccc1F)N1C[C@@H]2N[C@H](C1)C2c1ccc(/C=C/c2ccccc2)cc1 (some centres undefined), the AC40 is reported as 7.12 µM.
In the case of Cc1ccc(-n2ncc3c(=O)n(CC(=O)Nc4cccc(Cl)c4)cnc32)cc1C, the AC40 is reported as 6.76 µM.
In the case of CCOC(=O)c1c(NC(=O)Cn2nc(C(F)(F)F)cc2C)sc(C)c1C, the AC40 is reported as 5.96 µM.
Work on C[C@H](CO)N1C[C@H](C)[C@@H](CN(C)C(=O)Cc2ccccn2)Oc2cc(C#C[C@@H](C)O)ccc2S1(=O)=O yielded an AC40 of 18 µM.
With COC(=O)C1=C(C)N(C)C(=NCc2cccc(C(F)(F)F)c2)NC1c1ccc(C(F)(F)F)cc1 (centres undefined) the AC40 was 4.7 µM.
Cc1ccc(NC(=O)c2ccc(COc3ccc4c(c3)CCC4)cc2)c(C)c1 was tested, and the AC40 was 0.841 µM.
With C[C@H]1CN([C@@H](C)CO)S(=O)(=O)c2ccc(C#Cc3ccccc3)cc2O[C@@H]1CN(C)C(=O)CN(C)C the AC40 was 11.1 µM.
In the case of COc1ccc(C(=O)NC(=S)Nc2ccc3c4c(cccc24)CC3)cc1OC, the AC40 is reported as 6.85 µM.
For Cc1c(C)c2c(OCC(=O)O)cc3c(c2oc1=O)CCC(C)(C)O3, the AC40 was 22 µM.
In the case of CC1(C(=O)NCC2CCCCC2)CCN1CCc1ccccc1 (centres undefined), the AC40 is reported as 17.9 µM.
Work on O=C(CC1c2ccccc2Oc2ccccc21)Nc1ccccc1C(F)(F)F yielded an AC40 of 5.33 µM.
O=C(NCC1OCCc2ccccc21)c1ccc(NC(=O)c2ccc(Cl)cc2Cl)cc1 (centres undefined) was tested, and the AC40 was 17.9 µM.
Work on Fc1cccc(-c2ccc(C3[C@@H]4CN(Cc5ccccc5F)C[C@H]3N4)cc2)c1 (some centres undefined) yielded an AC40 of 6.11 µM.
Compound Nc1nc(N)c2cc(Sc3ccc(Cl)cc3)ccc2n1 has an AC40 of 9.55 µM.
CCN(CC)c1ccc(N=Cc2c(O)n(Cc3ccccc3)c(=O)[nH]c2=O)cc1 was tested, and the AC40 was 7.08 µM.
Compound CCOC(=O)c1cc(-c2ccc(Cl)s2)nc2c1c(C)nn2C has an AC40 of 13.6 µM.
For O=C(COc1ccccc1)Nc1sc2c(c1C(=O)NCc1cccnc1)CCCC2, the AC40 was 6.97 µM.
For N/C(=N\OC(=O)COc1ccc(Cl)cc1Cl)c1cccnc1, the AC40 was 19.3 µM.
O=C1Nc2ccccc2N(C(=O)c2ccc3ccccc3c2)C1c1nc2ccccc2[nH]1 (centres undefined) gave an AC40 of 6.41 µM.
Work on Cc1cc(Cl)ccc1Oc1nc(-c2ccccc2)ncc1S(C)(=O)=O yielded an AC40 of 3.04 µM.
O=C(Nc1ccc(C(F)(F)F)cc1)N1[C@@H]2CNC[C@H]1C2c1ccc(/C=C/c2ccccc2)cc1 (some centres undefined) showed an AC40 of 7.54 µM.
COc1cc(/C=N/NC(=O)Nc2ccccc2)ccc1OCCOc1ccccc1C showed an AC40 of 1.92 µM.
Work on COc1cc(NC(=O)c2cccc(C)c2)ccc1NC(=O)c1cc2ccccc2o1 yielded an AC40 of 2.21 µM.
In the case of CC(C)CC#Cc1ccc2c(c1)O[C@@H](CN(C)Cc1ccc(F)cc1)[C@H](C)CN([C@H](C)CO)S2(=O)=O, the AC40 is reported as 9.44 µM.
Compound Cc1ccccc1C(=O)Nc1nnc(-c2ccc(C(C)(C)C)cc2)s1 has an AC40 of 4.97 µM.
In the case of CC(C)C[C@H](NC(=O)c1[nH]cnc1C(=O)N[C@@H](C)c1ccccc1)C(=O)OC(C)(C)C, the AC40 is reported as 20 µM.
In the case of CC(C)(C)C1CCc2c(sc(NC(=O)c3cccs3)c2C(N)=O)C1 (centres undefined), the AC40 is reported as 16.5 µM.
COc1ccc(Br)cc1C(=O)Nc1cc(C)cc(C)c1 showed an AC40 of 6.69 µM.
CC(C)CC#Cc1ccc2c(c1)O[C@@H](CN(C)Cc1ccccc1)[C@H](C)CN([C@H](C)CO)S2(=O)=O showed an AC40 of 8.93 µM.
Cn1c(=O)c(C(=O)NNC(=O)c2cccc(Cl)c2)c(O)c2ccccc21 showed an AC40 of 9.13 µM.
In the case of Oc1ccccc1C1SC(c2ccccc2O)SC(c2ccccc2O)S1 (centres undefined), the AC40 is reported as 5.36 µM.
With CC(C)(C)c1ccccc1OCC(O)CN1CCN(c2ccccn2)CC1 (centres undefined) the AC40 was 13 µM.
For O=C(Nc1ccccc1)c1nnsc1S(=O)(=O)c1ccc(Cl)cc1, the AC40 was 0.403 µM.

Source: PubChem BioAssay AID977606 (Broad Institute, 2014)
